Target: Neuronal acetylcholine receptor subunit alpha-7 (Homo sapiens, UniProt P36544)
Assay: Positive allosteric modulation of human alpha7 nAChR expressed in HEK cells assessed as potentiation of acetylcholine induced peak current amplitude preincubated for 58 secs followed by acetylcholine stimulation for 1 secs by automated patch-clamp electrophysiology
Assay type: cell-based

Neuronal acetylcholine receptor subunit alpha-7, sequence (P36544 whole entry): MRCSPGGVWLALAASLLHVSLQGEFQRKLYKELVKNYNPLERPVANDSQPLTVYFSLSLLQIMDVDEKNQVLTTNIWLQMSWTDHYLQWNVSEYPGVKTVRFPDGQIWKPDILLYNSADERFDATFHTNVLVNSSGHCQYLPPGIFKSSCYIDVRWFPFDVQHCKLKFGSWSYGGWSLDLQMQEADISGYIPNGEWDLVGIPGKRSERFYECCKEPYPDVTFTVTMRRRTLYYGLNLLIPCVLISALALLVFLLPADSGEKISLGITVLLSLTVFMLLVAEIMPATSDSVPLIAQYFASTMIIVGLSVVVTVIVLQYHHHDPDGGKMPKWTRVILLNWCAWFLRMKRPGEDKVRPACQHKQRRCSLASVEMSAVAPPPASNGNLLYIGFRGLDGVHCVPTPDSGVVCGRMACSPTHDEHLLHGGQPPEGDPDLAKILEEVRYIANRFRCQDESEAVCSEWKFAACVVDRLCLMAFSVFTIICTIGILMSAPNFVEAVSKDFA

SMILES	EC50 [nM]
O=C(NC1(c2ccc(F)cc2)COC1)C1CC12CCc1ccccc12 (centres undefined)	3200
O=C(NC1(c2ccc(F)cc2)COC1)C1CC12CCc1ccc(F)cc12 (centres undefined)	820
CCOc1ccc([C@H](CF)NC(=O)C2CC23COc2ccc(F)cc23)cn1 (some centres undefined)	790
CCOc1ccc([C@@H](NC(=O)C2CC23COc2ccc(F)cc23)C(F)F)cn1 (some centres undefined)	3000

Continued by falling EC50, values first:

EC50 [nM]	SMILES
770	O=C(N[C@@H](CO)C1CCCCC1)C1CC12COc1ccc(F)cc12 (some centres undefined)
740	CCOc1ccc([C@H](COC)NC(=O)C2CC23CCCc2ccccc23)cc1 (some centres undefined)
700	CCOc1ccc([C@H](COC)NC(=O)C2CC23CCc2ccc(F)cc23)cc1 (some centres undefined)
630	O=C(N[C@@H](CO)C1CCCCC1)C1CC12COc1ccccc12 (some centres undefined)
590	CCOc1ccc([C@H](COC)NC(=O)C2CC23CCc2cc(F)ccc23)cc1 (some centres undefined)

From ChEMBL document CHEMBL5357009, “Positive Allosteric Modulators of alpha7 Nicotinic Acetylcholine Receptor for the Treatment of Several Central Nervous System Diseases” (ACS Med Chem Lett, 2024)
